Reference: ChEMBL document CHEMBL1201862, “PubChem BioAssay data set” (2004)
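Each compound was tested at five concentrations against cells in 96-well plates for 48 hours. GI50 is the concentration that inhibits growth by half.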 Active and inactive are the calls of the source. No stated cut-off is given here; in the data, active = GI50 up to about 1.1 µM and inactive = higher.

Legend:
Assay in all cases: NCI anticancer screen, dose series, 48 h
A498 = system: A498
A549 = system: A549
CAKI-1 = system: CAKI-1
CCRF-CEM = system: CCRF-CEM
COLO 205 = system: COLO 205
DLD-1 = system: DLD-1
DMS-114 = system: DMS-114
DMS-273 = system: DMS-273
EKVX = system: EKVX
HCC 2998 = system: HCC 2998
HCT-116 = system: HCT-116
HCT-15 = system: HCT-15
HL-60 = system: HL-60
HOP-18 = system: HOP-18
HOP-62 = system: HOP-62
HOP-92 = system: HOP-92
HT-29 = system: HT-29
IGROV-1 = system: IGROV-1
K562 = system: K562
KM-20L2 = system: KM-20L2
KM12 = system: KM12
LOX IMVI = system: LOX IMVI
M19-MEL = system: M19-MEL
MCF7 = system: MCF7
MOLT-4 = system: MOLT-4
Malme-3M = system: Malme-3M
NCI-H226 = system: NCI-H226
NCI-H23 = system: NCI-H23
NCI-H460 = system: NCI-H460
NCI-H522 = system: NCI-H522
NCI/ADR-RES = system: NCI/ADR-RES
OVCAR-3 = system: OVCAR-3
OVCAR-4 = system: OVCAR-4
OVCAR-5 = system: OVCAR-5
OVCAR-8 = system: OVCAR-8
RPMI-8226 = system: RPMI-8226
RXF 393 = system: RXF 393
SF-268 = system: SF-268
SF-295 = system: SF-295
SF-539 = system: SF-539
SK-MEL-28 = system: SK-MEL-28
SK-MEL-2 = system: SK-MEL-2
SK-MEL-5 = system: SK-MEL-5
SK-OV-3 = system: SK-OV-3
SN12C = system: SN12C
SNB-19 = system: SNB-19
SNB-75 = system: SNB-75
SNB-78 = system: SNB-78
SW-620 = system: SW-620
U-251 = system: U-251
UACC-257 = system: UACC-257
UACC-62 = system: UACC-62
UO-31 = system: UO-31
XF498 = system: XF498

For `COC1=CC(=O)C=C(OC)C1=O` [2,6-DIMETHOXYQUINONE], the GI50 (A498) was 2.49 µM (inactive), the GI50 (A549) was 57.1 µM (inactive) and the GI50 (CAKI-1) was 50.4 µM (inactive). For the same compound, the GI50 (CCRF-CEM) was 1.38 µM (inactive), the GI50 (COLO 205) was 12.6 µM (inactive) and the GI50 (DLD-1) was 8.87 µM (inactive). For the same compound, the GI50 (DMS-114) was 5.81 µM (inactive), the GI50 (DMS-273) was 36.1 µM (inactive) and the GI50 (EKVX) was 5.69 µM (inactive). The GI50 (HCC 2998) was 27.9 µM (inactive), the GI50 (HCT-116) was 6.49 µM (inactive) and the GI50 (HCT-15) was 31.6 µM. For the same compound, the GI50 (HL-60) was 3.94 µM (inactive), the GI50 (HOP-18) was 45.8 µM (inactive) and the GI50 (HOP-62) was 25.3 µM (inactive). For the same compound, the GI50 (HOP-92) was 4.16 µM (inactive), the GI50 (HT-29) was 27.4 µM (inactive) and the GI50 (IGROV-1) was 11.3 µM (inactive). The GI50 (K562) was 7.1 µM (inactive), the GI50 (KM-20L2) was 30 µM (inactive) and the GI50 (KM12) was 16.4 µM (inactive). The GI50 (LOX IMVI) was 5.14 µM (inactive), the GI50 (M19-MEL) was 4.22 µM (inactive) and the GI50 (MCF7) was 17.7 µM (inactive). For the same compound, the GI50 (MOLT-4) was 1.49 µM (inactive), the GI50 (Malme-3M) was 20.2 µM (inactive) and the GI50 (NCI-H226) was 1.55 µM (inactive). For the same compound, the GI50 (NCI-H23) was 7.66 µM (inactive), the GI50 (NCI-H460) was 23.7 µM (inactive) and the GI50 (NCI-H522) was 7.05 µM (inactive). For the same compound, the GI50 (NCI/ADR-RES) was 5.01 µM (inactive), the GI50 (OVCAR-3) was 4.78 µM (inactive) and the GI50 (OVCAR-4) was 7.43 µM (inactive). For the same compound, the GI50 (OVCAR-5) was 28.1 µM (inactive), the GI50 (OVCAR-8) was 8.93 µM (inactive) and the GI50 (RPMI-8226) was 6 µM (inactive). For the same compound, the GI50 (RXF 393) was 7.96 µM (inactive), the GI50 (SF-268) was 6.46 µM (inactive) and the GI50 (SF-295) was 13.3 µM (inactive). For the same compound, the GI50 (SF-539) was 16.8 µM (inactive), the GI50 (SK-MEL-28) was 21.8 µM (inactive) and the GI50 (SK-MEL-2) was 6.55 µM (inactive). For the same compound, the GI50 (SK-MEL-5) was 20.9 µM (inactive), the GI50 (SK-OV-3) was 17.9 µM (inactive) and the GI50 (SN12C) was 15.6 µM (inactive). The GI50 (SNB-19) was 13.6 µM (inactive), the GI50 (SNB-75) was 27.9 µM (inactive) and the GI50 (SNB-78) was 16.8 µM (inactive). The GI50 (SW-620) was 6.37 µM (inactive), the GI50 (U-251) was 31.6 µM (inactive) and the GI50 (UACC-257) was 10.2 µM (inactive). For the same compound, the GI50 (UACC-62) was 5.33 µM (inactive), the GI50 (UO-31) was 23.6 µM (inactive) and the GI50 (XF498) was 2.99 µM (inactive).
